Measurements reported in US9204653B2, “5-fluoro pyrimidine derivatives” (DOW AGROSCIENCES LLC, priority 2008, dated 2015).
Where two headings read alike, the source gives them in different places.

Assays:
[1] = tested on: Mycosphaerella graminicola; Anamorph: Septoria tritici; Bayer Code SEPTTR; experiment: Leaf blotch of wheat, foliar fungicide treatment, one day protectant (1DP) or three day curative (3DC); format: in vivo, Septoria tritici on wheat plants (variety Yuma); conditions: Zymoseptoria tritici
[2] = tested on: Cercospora beticola; Bayer Code CERCBE; experiment: Leaf spot of sugar beets; format: in vivo, Cercospora beticola on sugar beets (variety HH-88); conditions: 24 h, % disease control rating, one day protectant; for pest or weed control at 25 ppm: read-out: CERCBE 1 DP 25 ppm; for pest or weed control at 75 ppm: read-out: CERCBE 1 DP 75 ppm
[3] = tested on: Venturia inaequalis; Bayer Code VENTIN; experiment: Apple scab; format: in vivo; conditions: 24 h, % disease control rating, one day protectant; for pest or weed control at 25 ppm: read-out: VENTIN 1 DP 25 ppm; for pest or weed control at 75 ppm: read-out: VENTIN 1 DP 75 ppm
[4] = 24 h, one day protectant, rating of percent disease control, read-out: SETTTR 1DP 25 ppm
[5] = 24 h, one day protectant, rating of percent disease control, read-out: SEPTTR 1DP 100 ppm
[6] = 72 h, three day curative, rating of percent disease control, read-out: SEPTTR 3DC 25 ppm
[7] = 72 h, three day curative, rating of percent disease control, read-out: SEPTTR 3DC 100 ppm
[8] = 24 h, one day protectant (1DP), rating of percent disease control, read-out: SETTTR 1DP 25 ppm
[9] = 24 h, one day protectant (1DP), rating of percent disease control, read-out: SEPTTR 1DP 100 ppm
[10] = 72 h, three day curative (3DC), rating of percent disease control, read-out: SEPTTR 3DC 25 ppm
[11] = 72 h, three day curative (3DC), rating of percent disease control, read-out: SEPTTR 3DC 100 ppm
[12] = 24 h, one day protectant (1DP), percent disease control rating, read-out: SETTTR 1DP 25 ppm
[13] = 24 h, one day protectant (1DP), percent disease control rating, read-out: SEPTTR 1DP 100 ppm
[14] = 72 h, three day curative (3DC), percent disease control rating, read-out: SEPTTR 3DC 25 ppm
[15] = 72 h, three day curative (3DC), percent disease control rating, read-out: SEPTTR 3DC 100 ppm

## Nc1nc(OCc2cc3ccccc3o2)ncc1F [Compound 554]
[1]; [4]
  pest or weed control at 25 ppm: 26 to 50%
[1]; [5]
  pest or weed control at 100 ppm: 76 to 100%
[1]; [6]
  pest or weed control at 25 ppm: 26 to 50%
[1]; [7]
  pest or weed control at 100 ppm: 76 to 100%
[2]
  pest or weed control at 25 ppm: 0 to 25%
  pest or weed control at 75 ppm: 51 to 75%
[3]
  pest or weed control at 25 ppm: 76 to 100%
  pest or weed control at 75 ppm: 76 to 100%

## CCNN(CC)c1nc(OCc2ccc(F)cc2)ncc1F [Compound 352]
[1]; [8]
  pest or weed control at 25 ppm: 0 to 25%
[1]; [9]
  pest or weed control at 100 ppm: 0 to 25%
[1]; [10]
  pest or weed control at 25 ppm: 0 to 25%
[1]; [11]
  pest or weed control at 100 ppm: 0 to 25%
[2]
  pest or weed control at 25 ppm: 0 to 25%
  pest or weed control at 75 ppm: 0 to 25%
[3]
  pest or weed control at 25 ppm: 0 to 25%
  pest or weed control at 75 ppm: 26 to 50%

## Nc1nc(Oc2cccc(Cl)c2)ncc1F [Compound 593]
[1]; [4]
  pest or weed control at 25 ppm: 0 to 25%
[1]; [5]
  pest or weed control at 100 ppm: 51 to 75%
[2]
  pest or weed control at 25 ppm: 26 to 50%
  pest or weed control at 75 ppm: 51 to 75%
[3]
  pest or weed control at 25 ppm: 76 to 100%
  pest or weed control at 75 ppm: 76 to 100%

## Fc1ccccc1CNc1nc(OCC(F)(F)F)ncc1F [Compound 894]
[1]; 24 h, % disease control rating, one day protectant, 50 ppm
  pest or weed control at 50 ppm: 0 to 25%
[1]; 24 h, % disease control rating, one day protectant, 200 ppm
  pest or weed control at 200 ppm: 0 to 25%
[2]
  pest or weed control at 25 ppm: 0 to 25%
  pest or weed control at 75 ppm: 0 to 25%
[3]
  pest or weed control at 25 ppm: 0 to 25%
  pest or weed control at 75 ppm: 26 to 50%

## CCCNC(=O)N(C(=O)NCCC)c1nc(OCc2cccc(OC)c2)ncc1F [Compound 36, 1-[5-Fluoro-2-(3-methoxybenzyloxy)pyrimidin-4-yl](3′-propylcarbamoyl)-3-propyl-urea]
[1]; [12]
  pest or weed control at 25 ppm: 26 to 50%
[1]; [13]
  pest or weed control at 100 ppm: 76 to 100%
[1]; [14]
  pest or weed control at 25 ppm: 51 to 75%
[1]; [15]
  pest or weed control at 100 ppm: 76 to 100%
[2]
  pest or weed control at 25 ppm: 51 to 75%
  pest or weed control at 75 ppm: 51 to 75%
[3]
  pest or weed control at 25 ppm: 51 to 75%
  pest or weed control at 75 ppm: 76 to 100%

## C/C(=N\Oc1ncc(F)c(N)n1)c1ccccc1 [Compound 4, 1-Phenyl-ethanone-O-(4-amino-5-fluoropyrimidin-2-yl)oxime]
[1]; [12]
  pest or weed control at 25 ppm: 76 to 100%
[1]; [13]
  pest or weed control at 100 ppm: 76 to 100%
[1]; [14]
  pest or weed control at 25 ppm: 76 to 100%
[1]; [15]
  pest or weed control at 100 ppm: 76 to 100%
[2]
  pest or weed control at 25 ppm: 76 to 100%
  pest or weed control at 75 ppm: 76 to 100%
[3]
  pest or weed control at 25 ppm: 76 to 100%
  pest or weed control at 75 ppm: 76 to 100%

## CC(C)(c1ccccc1)c1cccc(COc2ncc(F)c(N)n2)c1 [Compound 687]
[1]; [4]
  pest or weed control at 25 ppm: 26 to 50%
[1]; [5]
  pest or weed control at 100 ppm: 76 to 100%
[1]; [6]
  pest or weed control at 25 ppm: 0 to 25%
[1]; [7]
  pest or weed control at 100 ppm: 0 to 25%
[2]
  pest or weed control at 25 ppm: 0 to 25%
  pest or weed control at 75 ppm: 0 to 25%
[3]
  pest or weed control at 25 ppm: 26 to 50%
  pest or weed control at 75 ppm: 51 to 75%

## Nc1nc(OCc2coc(Cc3ccccc3)c2)ncc1F [Compound 69]
[1]; [12]
  pest or weed control at 25 ppm: 76 to 100%
[1]; [13]
  pest or weed control at 100 ppm: 76 to 100%
[1]; [14]
  pest or weed control at 25 ppm: 51 to 75%
[1]; [15]
  pest or weed control at 100 ppm: 76 to 100%
[2]
  pest or weed control at 25 ppm: 0 to 25%
  pest or weed control at 75 ppm: 26 to 50%
[3]
  pest or weed control at 25 ppm: 51 to 75%
  pest or weed control at 75 ppm: 76 to 100%

## Nc1nc(OCCN2CCCC2=O)ncc1F [Compound 270]
[1]; [8]
  pest or weed control at 25 ppm: 0 to 25%
[1]; [9]
  pest or weed control at 100 ppm: 0 to 25%
[1]; [10]
  pest or weed control at 25 ppm: 0 to 25%
[1]; [11]
  pest or weed control at 100 ppm: 0 to 25%
[2]
  pest or weed control at 25 ppm: 26 to 50%
  pest or weed control at 75 ppm: 26 to 50%
[3]
  pest or weed control at 25 ppm: 0 to 25%
  pest or weed control at 75 ppm: 26 to 50%

## COc1cc(COc2ncc(F)c(N)n2)cc(Cl)n1 [Compound 311]
[1]; [8]
  pest or weed control at 25 ppm: 76 to 100%
[1]; [9]
  pest or weed control at 100 ppm: 76 to 100%
[1]; [10]
  pest or weed control at 25 ppm: 76 to 100%
[1]; [11]
  pest or weed control at 100 ppm: 76 to 100%
[2]
  pest or weed control at 25 ppm: 26 to 50%
  pest or weed control at 75 ppm: 26 to 50%
[3]
  pest or weed control at 25 ppm: 26 to 50%
  pest or weed control at 75 ppm: 26 to 50%

## CN1CCN(CNc2nc(OCc3ccc(F)cc3)ncc2F)CC1 [Compound 7, [5-Fluoro-2-(4-fluorobenzyloxy)pyrimidin-4-yl]-(4-methylpiperazin-1-ylmethyl)amine]
[1]; [12]
  pest or weed control at 25 ppm: 76 to 100%
[1]; [13]
  pest or weed control at 100 ppm: 76 to 100%
[1]; [14]
  pest or weed control at 25 ppm: 76 to 100%
[1]; [15]
  pest or weed control at 100 ppm: 76 to 100%
[2]
  pest or weed control at 25 ppm: 51 to 75%
  pest or weed control at 75 ppm: 51 to 75%
[3]
  pest or weed control at 25 ppm: 76 to 100%
  pest or weed control at 75 ppm: 76 to 100%

## CC(CCOc1ncc(F)c(N)n1)c1ccccc1 (centres unmarked) [Compound 710]
[1]; [4]
  pest or weed control at 25 ppm: 51 to 75%
[1]; [5]
  pest or weed control at 100 ppm: 76 to 100%
[1]; [6]
  pest or weed control at 25 ppm: 51 to 75%
[1]; [7]
  pest or weed control at 100 ppm: 76 to 100%
[2]
  pest or weed control at 25 ppm: 0 to 25%
  pest or weed control at 75 ppm: 0 to 25%
[3]
  pest or weed control at 25 ppm: 26 to 50%
  pest or weed control at 75 ppm: 26 to 50%
